The data set is described as follows: dissolution rate of ketoprofen in 0.1 N HCl. The data set is classed as physicochemical. The settings on record: granulated with microcrystalline cellulose.

From patent US7607596B1, “Process for enhancing the solubility of poorly soluble drugs” (Exxpharma, LLC, priority 2007, dated 2009) come the findings set out here.

Regarding `CC(C(=O)O)c1cccc(C(=O)c2ccccc2)c1` (centres unmarked) [ketoprofen, Ketoprofen], the “dissolution rate of ketoprofen in 0.1N HCl (change after processing)” value reads like this: (Example 1: ketoprofen ground/mixed with distilled water in TSGM, 200 rpm, 25° C., dried at 40° C.) “increased two-fold”; (Example 2: ketoprofen ground/mixed with 10% aqueous solution of Labrasol in TSGM) “increased two-fold”; (Example 3: ketoprofen ground/mixed with 10% aqueous solution of Tween 80 in TSGM) “increased four-fold”; (Example 4: ketoprofen ground/mixed with 10% aqueous solution of Capryol 90 in TSGM) “increased two-fold”; (Example 5: ketoprofen ground/mixed with 10% aqueous solution of polyvinylpyrrolidone in TSGM) “increased three-fold”.
